Results taken from article PMC5725799, “Comparative binding properties of the tau PET tracers THK5117, THK5351, PBB3, and T807 in postmortem Alzheimer brains” (Alzheimer's Research & Therapy, 2017).
pKi: −log10 of the molar value. Values joined by “and” are separate entries in the source; they are usually repeats but may differ in a detail not shown here. Equal entries are not always repeated.

What was measured:
[1] = test system: tau; assay: ^3H-THK5117 and ^3H-THK5351 autoradiography of large frozen postmortem brain sections, total binding; design: species or system human; details: 3 nM tracer
Experimental: Postmortem frozen left brain hemispheres from three patients with AD were obtained from the Neuropathology of Dementia Laboratory (Indiana University School of Medicine, Indianapolis, IN, USA) and used for the autoradiography experiment. The frozen sections were allowed to reach room temperature, preincubated for 10 minutes with PBS + 0.1% BSA (pH 7.4), and then incubated for 1 h at room temperature with ^3H-THK5351 (3 nM) or ^3H-THK5117 (3 nM). The sections were rinsed three times in cold buffer for 5 minutes, followed by a quick dip in cold distilled water. Nonspecific binding was determined using 10 μM unlabeled THK5351 or 10 μM unlabeled THK5117. […]
For all the autoradiography studies, the regions of interest were drawn manually on the autoradiogram using multigauge software and were used for the semiquantitative analyses. Photostimulated luminescence per square millimeter (PSL/mm^2) was transformed to picomoles per cubic millimeter using a transformation factor that took into account the resolution of the image, the pixel value for the concentration of ligand, and the thickness of the sections: (PSL/mm^2 value)/([pixel value per pmol] × [(resolution/1000)^2] × [cryosection thickness]/1000).

[2] = test system: tau; assay: Regional binding distribution of ^3H-THK5117 and ^3H-THK5351 in brain homogenate; design: species or system human; details: temporal cortex homogenate, ^3H-THK5117 3 nM vs ^3H-THK5351 1.5 nM, p < 0.0001
Experimental: (§1) Postmortem brain tissues from three patients with AD and three healthy control subjects were used for the in vitro binding assays. All the brain tissue, which came from the Netherlands Brain Bank, had been homogenized in PBS containing a protease/phosphatase inhibitor (see Table 1).
The regional binding distribution comparison between ^3H-THK5351 and ^3H-THK5117 was carried out in postmortem frontal and temporal cortical and hippocampal tissue from the brains of three patients with AD and three control subjects. The protocol was similar for ^3H-THK5351 (1.5 nM) and ^3H-THK5117 (3 nM): 0.1 mg of tissue in PBS + 0.1% bovine serum albumin (BSA) to a final volume of 500 μl, followed by incubation for 2 h at room temperature. The nonspecific binding was determined using 1 μM unlabeled THK5351 or unlabeled THK5117. After 2-h incubation at room temperature, the competition binding assay was stopped using filtration through glass fiber filters, and the radiation was then quantified using the scintillation counter.

[3] = biological target: tau (Homo sapiens, UniProt P10636); assay: Competition binding assay with ^3H-THK5351 in postmortem hippocampus brain homogenates; details: vs ^3H-THK5351 1.5 nM, AD hippocampus homogenate; read-out: Ki2 (high-affinity site)
Experimental: as §1
After 2-h incubation at room temperature, the binding assay was terminated by filtration through glass fiber filters presoaked for at least 3 h in 0.3% polyethylenimine. To do so, the filters were rinsed and filtered three times using cold binding buffer, and then the radiation on the filter was quantified using a Beckman Coulter scintillation counter. The data for the regional binding distribution studies were analyzed using Prism version 7.0 software for Mac (GraphPad Software Inc., La Jolla, CA, USA), and two-way analysis of variance with multiple comparisons was performed.

[4] = biological target: T1, monoamine oxidase B (MAO-B) (Homo sapiens, UniProt P27338); assay: Competition binding with ^3H-deprenyl in hippocampus and putamen brain homogenates (off-target binding); details: vs ^3H-deprenyl 10 nM, two AD cases
T1 construct: postmortem brain homogenates from the hippocampus and putamen (0.2 mg/ml tissue) of two patients with AD; tissue Netherlands Brain Bank; host or cells: postmortem human AD hippocampus and putamen homogenate
T1 sequence (P27338 1-520): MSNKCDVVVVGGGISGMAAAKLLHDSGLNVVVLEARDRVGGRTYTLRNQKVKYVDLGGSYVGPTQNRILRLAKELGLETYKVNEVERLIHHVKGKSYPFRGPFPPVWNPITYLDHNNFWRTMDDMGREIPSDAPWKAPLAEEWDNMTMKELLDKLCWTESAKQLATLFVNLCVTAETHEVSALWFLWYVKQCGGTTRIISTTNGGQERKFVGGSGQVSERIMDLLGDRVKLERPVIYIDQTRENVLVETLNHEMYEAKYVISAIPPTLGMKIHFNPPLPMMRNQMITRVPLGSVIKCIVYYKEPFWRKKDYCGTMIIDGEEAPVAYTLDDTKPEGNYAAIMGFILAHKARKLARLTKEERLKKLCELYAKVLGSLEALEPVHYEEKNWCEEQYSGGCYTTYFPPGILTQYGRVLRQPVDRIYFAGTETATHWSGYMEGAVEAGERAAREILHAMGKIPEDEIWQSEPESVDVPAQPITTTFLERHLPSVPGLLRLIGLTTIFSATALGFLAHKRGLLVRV
Experimental: Competition binding studies using postmortem brain homogenates from the hippocampus and putamen (0.2 mg/ml tissue) of two patients with AD were performed using ^3H-deprenyl (10 nM in Na-K phosphate buffer, pH 7.4) and increasing concentrations of unlabeled THK5117 (10^−14 to 10^−5 M) and T807 (10^−14 to 10^−5 M) to determine the off-target binding of the tau PET tracers. After 2-h incubation at room temperature, the binding assay was terminated by filtration through glass fiber filters presoaked for at least 3 h in 0.3% polyethylenimine. To do so, the filters were rinsed and filtered three times using cold binding buffer, and then the radiation on the filter was quantified using a Beckman Coulter scintillation counter. The data from all the binding studies were analyzed using Prism version 7.0 software.

[5] = test system: MAO-B; design: method as in PMID 28374768; details: cited from earlier work

tau (Homo sapiens, UniProt P10636), sequence (P10636 623-695 limits assumed): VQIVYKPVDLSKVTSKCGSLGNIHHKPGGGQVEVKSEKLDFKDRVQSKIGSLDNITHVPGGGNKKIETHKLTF

| SMILES | Total Binding ([1]; AD1, Frontal cortex) | Total Binding ([1]; AD1, Temporal cortex) | extent of binding compared with ^3H-THK5351 [2] | pKi [3] | pKi ([4]; hippocampus homogenate) | pKi ([4]; putamen homogenate) | affinity between MAO-B and THK5117 [5] |
| --- | --- | --- | --- | --- | --- | --- | --- |
| [3H]CNc1ccc(-c2ccc3cc(OCC(O)CF)ccc3n2)cc1 (stereo not shown) [^3H-THK5117, 1-Fluoro-3-((2-(4-([^3H]methylamino)phenyl)quinolin-6-yl)oxy)propan-2-ol] | 312 fmol/mg | 261 fmol/mg | more extensive binding of ^3H-THK5117 than of ^3H-THK5351 | – | – | – | – |
| CNc1ccc(-c2ccc3cc(OCC(O)CF)ccc3n2)cc1 (stereo not shown) [THK5117] | – | – | – | 7.70 | 6.54 and < 6.70 | 6.83 and ~6.82 | around 300 nM |
